Data from patent US7479492B2, “Use combined 5-HT1A agonists and selective serotonin reuptake inhibitors” (Merck Patent GmbH, priority 2000, dated 2009).

What was measured:
[1] = system: formalin-induced pain response (flinching); experiment: Formalin paw test in the mouse or rat; format: in vivo; conditions: 30 mg/kg p.o.; intraplantar 5% formalin
Experimental: 1. Formalin paw test in the mouse or rat accorrding to Wheeler-Aceto et al., (Psychopharmacology 1991, 104: 35-44): Animals are given an intraplantar injection of 5% formalin (25 μl for the mouse, 50 μl for the rat) into the posterior left paw. This treatment induces a recognizable flinching response in control animals. The number of flinches is counted for 10 minutes, beginning immediately after injection of formalin (early phase) and again for 5 minutes in mice or 15 minutes in rats, beginning 20 minutes after the injection.

[2] = system: writhing response induced by phenylbenzoquinone (PBQ) or acetic acid; experiment: Phenylbenzoquinone and acetic writhing tests in mice; format: in vivo, mouse; conditions: 30 mg/kg p.o., PBQ 1.25 mg/kg i.p. or acetic acid 0.5% i.p.
Experimental: 5. Phenylbenzoquinone and acetic writhing tests in mice follow the methods described by Hendershot et al (J. Pharmacol. Exp. Ther. 1959, 125: 237-240): Mice are injected with phenylbenzoquinone (PBQ) (1.25 mg/kg i.p.) or acetic acid (0.5% i.p.). This treatment induces a recognizable writhing response in control animals. The number of writhes is counted for 10 minutes beginning 5 minutes after injection of PBQ or acetic acid.

**Q.** What does the source list for `Cl.N#Cc1ccc2[nH]cc(CCCCN3CCN(c4ccc5oc(C(N)=O)cc5c4)CC3)c2c1` [1-[4-(5-cyanoindol-3-yl)butyl]-4-(2-carbamoyl-benzofuran-5-yl)-piperazine hydrochloride]?
**A.** reduction of the formalin-induced pain response [1]: 79%; reduction of writhes [2]: 82%
